Activity calls are given as the source filed them. The calls are words filed in the database; no cut-off is given here.
Legend:
[1] = target: Tyrosine-protein kinase ABL1 (Homo sapiens) (UniProt P00519); test: Inhibition of His-tagged recombinant human ABL1 at 1 uM
MOLM-13 [2] = test: Induction of apoptosis in human MOLM-13 cells assessed as increase number of apoptotic cells at 10 to 50 nM measured after 72 hrs by propidium iodide staining based flow cytometry; assay type: functional, cell-based; conditions: dose 10-50 nM
MV4-11 [3] = test: Inhibition of colony formation in human MV4-11 cells at 500 nM measured after 14 days; assay type: functional, cell-based; conditions: time 14.0 day
MOLM-13 [4] = test: Inhibition of colony formation in human MOLM-13 cells at 500 nM measured after 7 days; assay type: functional, cell-based; conditions: time 7.0 day
KM12 = test: Anticancer activity against human KM12 cells assessed as cell viability after 72 hrs by ATP Cell Titer G1oTM assay; assay type: functional, cell-based; conditions: KM12, 72 h
[5] = test system: Receptor-type tyrosine-protein kinase FLT3 (Homo sapiens), P36888 [UNDEFINED MUTATION]; test: Inhibition of FLT3-ITD mutant in human MOLM-13 cells assessed as decrease in Erk1/2 phosphorylation measured after 24 to 48 hrs by Western blot analysis; assay type: cell-based; conditions: dose 10-100 nM, time 24-48 hrs, DDE = dose-dependent effect
[6] = test system: Receptor-type tyrosine-protein kinase FLT3 (Homo sapiens), P36888 [UNDEFINED MUTATION]; test: Inhibition of FLT3-ITD mutant in human MOLM-13 cells assessed as decrease in p-S6 kinase level measured after 24 to 48 hrs by Western blot analysis; assay type: cell-based; conditions: dose 10-100 nM, time 24-48 hrs, DDE = dose-dependent effect
[7] = test system: Receptor-type tyrosine-protein kinase FLT3 (Homo sapiens), P36888 [UNDEFINED MUTATION]; test: Inhibition of FLT3-ITD mutant in human MV4-11 cells assessed as decrease in p-S6 kinase level measured after 24 to 48 hrs by Western blot analysis; assay type: cell-based; conditions: dose 10-100 nM, time 24-48 hrs, DDE = dose-dependent effect
[8] = test system: Receptor-type tyrosine-protein kinase FLT3 (Homo sapiens), P36888 [UNDEFINED MUTATION]; test: Inhibition of FLT3-ITD mutant in human MV4-11 cells assessed as decrease in Erk1/2 phosphorylation measured after 24 to 48 hrs by Western blot analysis; assay type: cell-based; conditions: dose 10-100 nM, time 24-48 hrs, DDE = dose-dependent effect
MOLM-13 [9] = test: Cell cycle arrest in human MOLM-13 cells assessed as accumulation at G0/G1 phase at 10 to 50 nM measured after 72 hrs by flow cytometry; assay type: functional, cell-based; conditions: dose 10-50 nM
MV4-11 [10] = test: Cell cycle arrest in human MV4-11 cells assessed as accumulation at G0/G1 phase at 10 to 50 nM measured after 72 hrs by flow cytometry; assay type: functional, cell-based; conditions: dose 10-50 nM
MV4-11 [11] = test: Induction of apoptosis in human MV4-11 cells assessed as increase number of apoptotic cells at 10 to 50 nM measured after 72 hrs by propidium iodide staining based flow cytometry; assay type: functional, cell-based; conditions: dose 10-50 nM
MV4-11 [12] = test: Induction of apoptosis in human MV4-11 cells assessed as increase number of necrotic cells at 10 to 50 nM measured after 72 hrs by propidium iodide staining based flow cytometry; assay type: functional, cell-based; conditions: dose 10-50 nM
MOLM-13 [13] = test: Induction of apoptosis in human MOLM-13 cells assessed as increase number of necrotic cells at 10 to 50 nM measured after 72 hrs by propidium iodide staining based flow cytometry; assay type: functional, cell-based; conditions: dose 10-50 nM
BNL = test: Cytotoxicity against mouse BNL cells assessed as cell viability at 10 to 50 nM measured after 72 hrs by ATP Cell titer-Glo assay; assay type: toxicity, cell-based; conditions: 0.05 µM, dose 10-50 nM
H9c2 = test: Cytotoxicity against rat H9c2 cells assessed as cell viability at 10 to 50 nM measured after 72 hrs by ATP Cell titer-Glo assay; assay type: toxicity, cell-based; conditions: h9c2, 72 h, 0.05 µM, dose 10-50 nM
[14] = target: CDK2/Cyclin A2 (Homo sapiens) (UniProt P24941+P20248); test: Inhibition of His-tagged recombinant full length human CDK2/CyclinA expressed in baculovirus expression system at 1 uM by LanthaScreen assay
[15] = target: Fibroblast growth factor receptor 3 (Homo sapiens) (UniProt P22607); test: Inhibition of FGFR3 (unknown origin) at 1 uM
Sequence of Fibroblast growth factor receptor 3 (Homo sapiens) (P22607 23-806 limits assumed): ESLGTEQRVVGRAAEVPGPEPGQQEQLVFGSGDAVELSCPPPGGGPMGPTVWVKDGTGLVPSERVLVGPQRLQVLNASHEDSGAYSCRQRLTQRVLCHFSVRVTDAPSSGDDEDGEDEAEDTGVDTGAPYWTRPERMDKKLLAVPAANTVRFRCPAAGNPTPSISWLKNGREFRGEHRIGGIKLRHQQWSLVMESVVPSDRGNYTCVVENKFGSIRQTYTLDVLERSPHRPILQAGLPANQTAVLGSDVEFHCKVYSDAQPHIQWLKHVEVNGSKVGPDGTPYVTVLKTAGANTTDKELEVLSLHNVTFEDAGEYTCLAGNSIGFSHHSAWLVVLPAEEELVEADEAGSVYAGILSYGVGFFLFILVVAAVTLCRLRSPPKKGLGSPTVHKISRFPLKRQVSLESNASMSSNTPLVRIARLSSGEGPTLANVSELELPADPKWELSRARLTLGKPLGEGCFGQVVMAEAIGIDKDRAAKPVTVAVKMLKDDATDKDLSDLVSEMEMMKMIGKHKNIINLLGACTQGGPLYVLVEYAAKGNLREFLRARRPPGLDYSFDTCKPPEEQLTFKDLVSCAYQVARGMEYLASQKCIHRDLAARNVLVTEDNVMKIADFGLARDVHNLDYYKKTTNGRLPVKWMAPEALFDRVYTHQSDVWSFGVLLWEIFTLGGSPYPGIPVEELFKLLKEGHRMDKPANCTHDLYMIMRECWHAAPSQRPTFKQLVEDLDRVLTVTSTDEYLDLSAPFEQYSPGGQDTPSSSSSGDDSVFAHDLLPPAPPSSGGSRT

[16] = target: Vascular endothelial growth factor receptor 1 (Homo sapiens) (UniProt P17948); test: Inhibition of human recombinant FLT1 expressed in baculovirus expression system at 1 uM by LanthaScreen assay
[17] = target: Vascular endothelial growth factor receptor 3 (Homo sapiens) (UniProt P35916); test: Inhibition of human recombinant FLT4 expressed in baculovirus expression system at 1 uM by LanthaScreen assay
[18] = target: Insulin-like growth factor 1 receptor (Homo sapiens) (UniProt P08069); test: Inhibition of human recombinant IGF1R expressed in baculovirus expression system at 1 uM by LanthaScreen assay
Sequence of Insulin-like growth factor 1 receptor (Homo sapiens) (P08069 31-736 limits assumed): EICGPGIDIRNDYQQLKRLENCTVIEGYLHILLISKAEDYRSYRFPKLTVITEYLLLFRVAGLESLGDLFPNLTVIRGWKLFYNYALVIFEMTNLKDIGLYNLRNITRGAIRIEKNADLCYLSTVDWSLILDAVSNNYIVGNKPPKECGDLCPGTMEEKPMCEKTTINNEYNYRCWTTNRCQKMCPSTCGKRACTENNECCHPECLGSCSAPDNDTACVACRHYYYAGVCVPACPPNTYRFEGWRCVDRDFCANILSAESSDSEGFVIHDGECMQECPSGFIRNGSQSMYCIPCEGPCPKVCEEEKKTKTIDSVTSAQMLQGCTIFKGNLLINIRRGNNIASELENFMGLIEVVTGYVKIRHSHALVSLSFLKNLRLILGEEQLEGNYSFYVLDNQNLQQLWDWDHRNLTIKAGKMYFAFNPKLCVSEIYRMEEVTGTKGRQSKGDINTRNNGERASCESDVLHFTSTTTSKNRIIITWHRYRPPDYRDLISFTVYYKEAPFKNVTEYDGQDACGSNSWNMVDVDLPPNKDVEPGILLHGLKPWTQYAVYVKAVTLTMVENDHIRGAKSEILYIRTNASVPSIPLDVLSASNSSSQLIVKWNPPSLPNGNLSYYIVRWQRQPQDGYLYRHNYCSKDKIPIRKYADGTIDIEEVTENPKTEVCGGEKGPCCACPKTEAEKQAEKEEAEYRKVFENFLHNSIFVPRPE
Sequence of Insulin-like growth factor 1 receptor (Homo sapiens) (P08069 741-1367 limits assumed): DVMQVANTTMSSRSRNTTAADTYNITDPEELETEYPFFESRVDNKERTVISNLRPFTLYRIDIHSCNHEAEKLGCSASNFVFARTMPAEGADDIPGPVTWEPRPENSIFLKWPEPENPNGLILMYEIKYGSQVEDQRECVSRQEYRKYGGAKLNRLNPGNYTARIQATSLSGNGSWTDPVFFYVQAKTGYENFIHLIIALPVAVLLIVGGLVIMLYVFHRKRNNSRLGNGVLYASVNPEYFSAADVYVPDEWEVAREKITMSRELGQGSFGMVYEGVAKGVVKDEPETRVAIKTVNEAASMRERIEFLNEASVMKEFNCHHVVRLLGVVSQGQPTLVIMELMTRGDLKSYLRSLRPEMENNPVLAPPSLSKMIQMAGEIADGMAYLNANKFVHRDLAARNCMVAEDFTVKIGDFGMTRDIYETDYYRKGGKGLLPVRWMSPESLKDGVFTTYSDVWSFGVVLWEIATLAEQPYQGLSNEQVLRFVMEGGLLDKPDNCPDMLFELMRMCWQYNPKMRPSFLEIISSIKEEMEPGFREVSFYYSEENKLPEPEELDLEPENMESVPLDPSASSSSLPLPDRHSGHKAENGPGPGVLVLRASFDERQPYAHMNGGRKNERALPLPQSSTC

[19] = target: Vascular endothelial growth factor receptor 2 (Homo sapiens) (UniProt P35968); test: Inhibition of human recombinant KDR expressed in baculovirus expression system at 1 uM by LanthaScreen assay
[20] = target: Mast/stem cell growth factor receptor Kit (Homo sapiens) (UniProt P10721); test: Inhibition of c-Kit (unknown origin) at 1 uM
[21] = target: Tyrosine-protein kinase Lck (Homo sapiens) (UniProt P06239); test: Inhibition of human recombinant LCK expressed in baculovirus expression system at 1 uM by LanthaScreen assay
[22] = target: Platelet-derived growth factor receptor alpha (Homo sapiens) (UniProt P16234); test: Inhibition of PDGFRA (unknown origin) at 1 uM
[23] = target: Platelet-derived growth factor receptor beta (Homo sapiens) (UniProt P09619); test: Inhibition of human recombinant PDGFRB expressed in baculovirus expression system at 1 uM by LanthaScreen assay
Sequence of Platelet-derived growth factor receptor beta (Homo sapiens) (P09619 whole entry): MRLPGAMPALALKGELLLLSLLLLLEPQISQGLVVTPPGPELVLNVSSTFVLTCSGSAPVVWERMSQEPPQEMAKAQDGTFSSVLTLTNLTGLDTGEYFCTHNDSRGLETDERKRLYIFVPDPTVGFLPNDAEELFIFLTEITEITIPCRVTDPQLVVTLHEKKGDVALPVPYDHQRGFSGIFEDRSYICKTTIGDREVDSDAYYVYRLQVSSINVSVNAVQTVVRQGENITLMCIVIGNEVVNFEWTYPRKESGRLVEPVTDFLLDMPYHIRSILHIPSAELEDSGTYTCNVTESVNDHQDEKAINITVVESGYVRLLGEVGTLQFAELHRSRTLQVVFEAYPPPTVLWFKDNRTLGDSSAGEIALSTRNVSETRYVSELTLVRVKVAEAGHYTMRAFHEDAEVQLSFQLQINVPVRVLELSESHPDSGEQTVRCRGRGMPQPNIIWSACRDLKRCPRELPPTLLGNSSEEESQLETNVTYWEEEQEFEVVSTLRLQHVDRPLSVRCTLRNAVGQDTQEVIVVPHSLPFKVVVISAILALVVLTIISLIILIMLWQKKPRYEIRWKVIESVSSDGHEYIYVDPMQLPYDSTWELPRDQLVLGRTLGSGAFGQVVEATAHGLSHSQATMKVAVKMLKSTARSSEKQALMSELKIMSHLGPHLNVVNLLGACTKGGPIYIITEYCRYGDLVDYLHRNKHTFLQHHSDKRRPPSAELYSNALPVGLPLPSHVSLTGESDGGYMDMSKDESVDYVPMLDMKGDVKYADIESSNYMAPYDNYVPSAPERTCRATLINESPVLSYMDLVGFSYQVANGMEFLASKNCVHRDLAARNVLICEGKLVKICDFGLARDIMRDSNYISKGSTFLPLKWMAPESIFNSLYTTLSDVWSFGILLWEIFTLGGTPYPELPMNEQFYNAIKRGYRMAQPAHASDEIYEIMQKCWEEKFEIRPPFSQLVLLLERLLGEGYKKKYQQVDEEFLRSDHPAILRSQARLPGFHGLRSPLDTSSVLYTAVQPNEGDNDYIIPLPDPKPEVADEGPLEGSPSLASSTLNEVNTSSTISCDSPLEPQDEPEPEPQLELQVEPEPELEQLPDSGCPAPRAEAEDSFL

[24] = target: Serine/threonine-protein kinase B-raf (Homo sapiens) (UniProt P15056); test: Inhibition of B-raf (unknown origin) at 1 uM
[25] = target: Serine/threonine-protein kinase D2 (Homo sapiens) (UniProt Q9BZL6); test: Inhibition of human recombinant PRKD2 expressed in baculovirus expression system at 1 uM by LanthaScreen assay
[26] = target: Serine/threonine-protein kinase pim-1 (Homo sapiens) (UniProt P11309); test: Inhibition of human recombinant PIM1 expressed in baculovirus expression system at 1 uM by LanthaScreen assay
Sequence of Serine/threonine-protein kinase pim-1 (Homo sapiens) (P11309 whole entry, looked up): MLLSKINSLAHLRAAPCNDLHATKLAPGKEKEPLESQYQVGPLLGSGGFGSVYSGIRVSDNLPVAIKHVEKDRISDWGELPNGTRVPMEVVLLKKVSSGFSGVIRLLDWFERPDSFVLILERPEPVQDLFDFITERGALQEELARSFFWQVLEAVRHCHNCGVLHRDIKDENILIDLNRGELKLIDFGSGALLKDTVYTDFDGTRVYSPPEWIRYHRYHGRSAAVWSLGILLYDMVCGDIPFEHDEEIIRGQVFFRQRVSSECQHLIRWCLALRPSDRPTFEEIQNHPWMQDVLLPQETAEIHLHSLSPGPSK

[27] = target: Proto-oncogene tyrosine-protein kinase Src (Homo sapiens) (UniProt P12931); test: Inhibition of human recombinant Src expressed in baculovirus expression system at 1 uM by LanthaScreen assay
Sequence of Proto-oncogene tyrosine-protein kinase Src (Homo sapiens) (P12931 2-536 limits assumed): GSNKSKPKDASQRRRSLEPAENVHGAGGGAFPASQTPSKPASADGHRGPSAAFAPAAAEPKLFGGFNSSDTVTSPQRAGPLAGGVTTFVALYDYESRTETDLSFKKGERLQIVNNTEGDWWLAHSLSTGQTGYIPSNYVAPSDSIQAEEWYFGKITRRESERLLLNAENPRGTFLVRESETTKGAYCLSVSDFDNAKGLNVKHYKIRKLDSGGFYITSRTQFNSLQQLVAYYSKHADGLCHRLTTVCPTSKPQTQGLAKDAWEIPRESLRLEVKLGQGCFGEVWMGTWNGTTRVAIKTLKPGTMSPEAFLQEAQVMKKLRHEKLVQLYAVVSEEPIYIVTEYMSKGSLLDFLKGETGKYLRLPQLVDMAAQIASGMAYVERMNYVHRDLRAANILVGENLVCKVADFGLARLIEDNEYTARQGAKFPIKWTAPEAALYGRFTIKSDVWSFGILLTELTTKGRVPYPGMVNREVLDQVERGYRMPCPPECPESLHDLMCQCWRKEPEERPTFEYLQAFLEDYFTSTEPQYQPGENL

[28] = target: BDNF/NT-3 growth factors receptor (Homo sapiens) (UniProt Q16620); test: Inhibition of human recombinant TrkB expressed in baculovirus expression system at 1 uM by LanthaScreen assay
[29] = target: NT-3 growth factor receptor (Homo sapiens) (UniProt Q16288); test: Inhibition of human recombinant TrkC expressed in baculovirus expression system at 1 uM by LanthaScreen assay
Sequence of NT-3 growth factor receptor (Homo sapiens) (Q16288 32-839 limits assumed): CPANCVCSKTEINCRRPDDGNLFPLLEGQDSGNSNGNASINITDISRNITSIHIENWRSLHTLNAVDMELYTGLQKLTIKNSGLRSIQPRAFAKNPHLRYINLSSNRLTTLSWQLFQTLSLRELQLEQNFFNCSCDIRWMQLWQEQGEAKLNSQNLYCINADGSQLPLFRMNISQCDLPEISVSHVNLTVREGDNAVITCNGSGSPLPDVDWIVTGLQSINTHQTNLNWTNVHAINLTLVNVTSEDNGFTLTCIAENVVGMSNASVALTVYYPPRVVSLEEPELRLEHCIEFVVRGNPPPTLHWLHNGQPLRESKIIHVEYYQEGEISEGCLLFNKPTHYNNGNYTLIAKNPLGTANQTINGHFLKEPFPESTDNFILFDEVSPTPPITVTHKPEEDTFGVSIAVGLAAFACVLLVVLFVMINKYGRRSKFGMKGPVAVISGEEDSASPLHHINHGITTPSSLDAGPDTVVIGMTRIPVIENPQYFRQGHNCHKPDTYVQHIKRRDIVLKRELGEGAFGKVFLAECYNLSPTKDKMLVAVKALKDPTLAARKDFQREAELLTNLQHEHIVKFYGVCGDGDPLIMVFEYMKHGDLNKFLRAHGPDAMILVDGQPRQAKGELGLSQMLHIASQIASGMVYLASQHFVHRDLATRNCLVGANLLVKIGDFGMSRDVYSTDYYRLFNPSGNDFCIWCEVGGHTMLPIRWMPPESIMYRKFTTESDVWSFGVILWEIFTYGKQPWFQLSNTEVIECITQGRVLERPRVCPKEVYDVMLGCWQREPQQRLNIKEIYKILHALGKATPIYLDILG

[30] = target: T1, Receptor-type tyrosine-protein kinase FLT3 (Homo sapiens, UniProt P36888)
Description: Inhibition of recombinant His-tagged human FLT3 (564 to 958 residues) expressed in baculovirus expression system by LanthaScreen assay

[31] = target: T2, Receptor-type tyrosine-protein kinase FLT3 (Homo sapiens, UniProt P36888, ITD)
[32] = target: T3, Receptor-type tyrosine-protein kinase FLT3 (Homo sapiens, UniProt P36888, D835Y)
[33] = target: High affinity nerve growth factor receptor (Homo sapiens, UniProt P04629)
Description: Inhibition of recombinant His-tagged human TrKA expressed in baculovirus expression system by LanthaScreen assay

MOLM-13 [34] = test: cells; conditions: Homo sapiens, MOLM-13, 72 h
MV4-11 [35] = test: cells; conditions: Homo sapiens, MV4-11, 72 h
[36] = target: T1, Receptor-type tyrosine-protein kinase FLT3; assay type: cell-based, RS4-11
[37] = target: T2, Receptor-type tyrosine-protein kinase FLT3; assay type: cell-based, MV4-11
[38] = target: T3, Receptor-type tyrosine-protein kinase FLT3; remark: listed apart in the source

SMILES: CC(=O)Nc1ccc(-n2cnc3cc(-c4ccc(OCCN5CCCCC5)cc4)ccc32)cc1
- inhibition [1]: 63%
- Activity (MOLM-13 [2]): Active
- inhibition (MV4-11 [3]): Active
- inhibition (MOLM-13 [4]): Active
- IC50 (KM12): 358 nM
- inhibition [5]: Dde
- inhibition [6]: Dde
- inhibition [7]: Dde
- inhibition [8]: Dde
- Activity (MOLM-13 [9]): Active
- Activity (MV4-11 [10]): Active
- Activity (MV4-11 [11]): Active
- Activity (MV4-11 [12]): Active
- Activity (MOLM-13 [13]): Active
- Activity (BNL): Non-Toxic
- Activity (H9c2): Non-Toxic
- inhibition [14]: 2%
- inhibition [15]: 13%
- inhibition [16]: 13%
- inhibition [17]: 24%
- inhibition [18]: 11%
- inhibition [19]: 77%
- inhibition [20]: 36%
- inhibition [21]: 78%
- inhibition [22]: 41%
- inhibition [23]: 33%
- inhibition [24]: 5%
- inhibition [25]: 19%
- inhibition [26]: 9%
- inhibition [27]: 27%
- inhibition [28]: 70%
- inhibition [29]: 79%
- IC50 [30]: 43.8 nM
- IC50 [31]: 97.2 nM
- IC50 [32]: 92.5 nM
- IC50 [33]: 23.6 nM
- IC50 (MOLM-13 [34]): 38.8 nM
- IC50 (MV4-11 [35]): 54.9 nM

SMILES: CCc1nc(C(N)=O)c(Cc2ccc(N3CCC(N4CCN(C)CC4)CC3)c(OC)c2)nc1CN1CCOCC1
- IC50 [36]: 0.29 nM
- IC50 [37]: 1.8 nM
- IC50 [38]: 1.6 nM

Source: ChEMBL document CHEMBL5131443, “Discovery of a benzimidazole-based dual FLT3/TrKA inhibitor targeting acute myeloid leukemia” (Bioorg Med Chem, 2022)
